Among the data in ChEMBL document CHEMBL4715711, “Development of cyanopyridine-triazine hybrids as lead multitarget anti-Alzheimer agents” (Bioorg Med Chem, 2016) are Activity, inhibition and IC50 values, retold here.

Molecules are shown by their SMILES. pIC50: −log10 of the molar value. Activity calls are given as the source filed them. The calls are words filed in the database; no cut-off is given here.

As a reminder, the inhibition is the share of the control response that was lost under treatment. The pIC50 is −log10 of the IC50, conventionally taken in molar units. A higher pIC50 goes with a low IC50.

Data set [1] deals with SH-SY5Y. Nature of the data set: Cytotoxicity against human SH-SY5Y cells assessed as reduction in cell viability at 5 uM incubated for 48 hrs by MTT assay. The data set is classed as cell-based.
Data set [2] relates to SH-SY5Y. Briefly: Inhibition of H2O2-induced ROS accumulation in human SH-SY5Y cells at 10 to 20 uM incubated for 24 hrs by […] probe based fluorescence assay. Type of data set: functional, cell-based. The settings on record: dose 10-20 µM.
Data set [3] deals with SH-SY5Y. Briefly: Cytotoxicity against human SH-SY5Y cells assessed as reduction in cell viability at 75 uM incubated for 48 hrs by MTT assay. Type of data set: cell-based. (In general: Formazan colour is commonly taken as a measure of viable cells.)
In the next data set the target is Acetylcholinesterase (Electrophorus electricus, UniProt O42275). Briefly: Inhibition of electric eel AchE using acetylthiocholine iodide as substrate incubated for 5 mins followed by substrate addition and measured after 2 mins by Ellman's method. On the technique in general: DTNB colorimetry detects thiols as they appear.
In data set [4] the test system is SH-SY5Y. Nature of the data set: Inhibition of H2O2-induced morphological changes in human SH-SY5Y cells at 20 uM incubated for 24 hrs by microscopic analysis. Type of data set: functional, cell-based.
Data set [5] deals with SH-SY5Y. Nature of the data set: Cytotoxicity against human SH-SY5Y cells assessed as reduction in cell viability at 50 uM incubated for 48 hrs by MTT assay. Type of data set: cell-based.
For data set [6], the species on record is Homo sapiens. Briefly: Inhibition of amyloid beta (1 to 42 ) (unknown origin) self aggregation at 25 uM after 48 hrs by thioflavin-T fluorescence method relative to control.
The subject of data set [7] is SH-SY5Y. Briefly: Cytotoxicity against human SH-SY5Y cells assessed as reduction in cell viability at 25 uM incubated for 48 hrs by MTT assay. The data set is classed as cell-based.
Another data set deals with Cholinesterase (Equus caballus, UniProt P81908). Nature of the data set: Inhibition of equine serum BuChE using butyrylthiocholine iodide as substrate incubated for 5 mins followed by substrate addition and measured after 2 mins by Ellman's method. Type of data set: cell-free.
Data set [8] deals with SH-SY5Y. Nature of the data set: Cytotoxicity against human SH-SY5Y cells assessed as reduction in cell viability at 1 uM incubated for 48 hrs by MTT assay. The data set is classed as cell-based.
The subject of data set [9] is SH-SY5Y. Nature of the data set: Neuroprotective activity against amyloid beta (1 to 42)-induced neurotoxicity in human SH-SY5Y cells at 5 to 20 uM incubated for 48 hrs in presence of amyloid beta (1 to 42) by MTT assay. The data set is classed as functional, cell-based. The settings on record: dose 5-20 µM.
In data set [10] the test system is SH-SY5Y. Briefly: Cytotoxicity against human SH-SY5Y cells assessed as reduction in cell viability at 100 uM incubated for 48 hrs by MTT assay. The data set is classed as cell-based.
For data set [11], the system named is SH-SY5Y. Nature of the data set: Neuroprotective activity against amyloid beta (1 to 42)-induced cell floating in human SH-SY5Y cells at 20 uM incubated for 24 hrs in presence of amyloid beta (1 to 42) by phase-contrast microscopic analysis. The data set is classed as functional, cell-based.
Data set [12] deals with SH-SY5Y. Nature of the data set: Cytotoxicity against human SH-SY5Y cells assessed as reduction in cell viability at 10 uM incubated for 48 hrs by MTT assay. The data set is classed as cell-based.
Data set [13] relates to SH-SY5Y. Briefly: Neuroprotective activity against amyloid beta (1 to 42)-induced fade synapses in human SH-SY5Y cells at 20 uM incubated for 24 hrs in presence of amyloid beta (1 to 42) by phase-contrast microscopic analysis. The data set is classed as functional, cell-based.
Data set [14] concerns SH-SY5Y. Nature of the data set: Neuroprotective activity against amyloid beta (1 to 42)-induced loss of adherence in human SH-SY5Y cells at 20 uM incubated for 24 hrs in presence of amyloid beta (1 to 42) by phase-contrast microscopic analysis. Type of data set: functional, cell-based.
Data set [15] deals with SH-SY5Y. Nature of the data set: Neuroprotective activity against amyloid beta (1 to 42)-induced cell fragmentation in human SH-SY5Y cells at 20 uM incubated for 24 hrs in presence of amyloid beta (1 to 42) by phase-contrast microscopic analysis. The data set is classed as functional, cell-based.
The species named for data set [16] is Homo sapiens. Nature of the data set: Inhibition of amyloid beta (1 to 42 ) (unknown origin) self aggregation at 25 uM after 48 hrs by TEM analysis.
Data set [17] concerns SH-SY5Y. Briefly: Inhibition of H2O2-induced cell death in human SH-SY5Y cells at 20 uM incubated for 24 hrs by microscopic analysis. Type of data set: functional, cell-based.
The test system of data set [18] is SH-SY5Y. Nature of the data set: Neuroprotective activity against amyloid beta (1 to 42)-induced shrink on cell body in human SH-SY5Y cells at 20 uM incubated for 24 hrs in presence of amyloid beta (1 to 42) by phase-contrast microscopic analysis. Type of data set: functional, cell-based.
Data set [19] addresses Acetylcholinesterase (Electrophorus electricus) (UniProt O42275). Nature of the data set: Mixed inhibition of electric eel AchE using acetylthiocholine iodide as substrate incubated for 5 mins followed by substrate addition and measured after 2 mins by Ellman's method based Lineweaver-Burk plot analysis. Particulars: time 7.0 min.

Cholinesterase, sequence (P81908 whole entry): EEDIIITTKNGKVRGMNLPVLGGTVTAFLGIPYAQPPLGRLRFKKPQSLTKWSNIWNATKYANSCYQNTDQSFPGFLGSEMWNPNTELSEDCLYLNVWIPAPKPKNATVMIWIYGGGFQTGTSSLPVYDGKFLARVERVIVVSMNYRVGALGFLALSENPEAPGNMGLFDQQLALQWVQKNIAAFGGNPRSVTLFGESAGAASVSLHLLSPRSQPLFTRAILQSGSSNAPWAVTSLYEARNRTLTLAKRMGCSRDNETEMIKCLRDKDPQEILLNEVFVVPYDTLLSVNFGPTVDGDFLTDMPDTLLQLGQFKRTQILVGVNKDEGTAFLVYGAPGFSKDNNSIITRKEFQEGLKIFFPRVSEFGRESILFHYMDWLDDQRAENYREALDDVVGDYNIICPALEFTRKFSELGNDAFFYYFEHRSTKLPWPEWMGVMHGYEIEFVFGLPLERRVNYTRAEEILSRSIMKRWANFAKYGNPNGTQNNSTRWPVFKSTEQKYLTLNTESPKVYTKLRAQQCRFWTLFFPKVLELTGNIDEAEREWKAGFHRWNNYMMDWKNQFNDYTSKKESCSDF
Acetylcholinesterase, sequence (O42275 whole entry): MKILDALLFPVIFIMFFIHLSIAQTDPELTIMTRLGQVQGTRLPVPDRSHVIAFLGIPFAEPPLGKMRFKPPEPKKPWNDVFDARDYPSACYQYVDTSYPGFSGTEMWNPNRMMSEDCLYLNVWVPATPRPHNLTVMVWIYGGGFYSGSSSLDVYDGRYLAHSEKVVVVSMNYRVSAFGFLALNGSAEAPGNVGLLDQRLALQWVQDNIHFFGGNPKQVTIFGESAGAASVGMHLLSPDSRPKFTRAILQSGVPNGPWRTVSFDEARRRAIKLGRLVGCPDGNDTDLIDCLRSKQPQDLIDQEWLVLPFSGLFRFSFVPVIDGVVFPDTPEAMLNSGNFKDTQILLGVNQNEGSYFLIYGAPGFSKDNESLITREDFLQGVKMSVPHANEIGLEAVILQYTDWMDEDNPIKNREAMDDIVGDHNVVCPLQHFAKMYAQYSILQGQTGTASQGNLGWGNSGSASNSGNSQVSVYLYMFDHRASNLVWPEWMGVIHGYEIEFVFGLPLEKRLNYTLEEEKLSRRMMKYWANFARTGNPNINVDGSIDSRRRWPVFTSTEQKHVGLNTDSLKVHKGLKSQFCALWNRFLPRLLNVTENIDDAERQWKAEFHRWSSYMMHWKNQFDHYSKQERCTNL
Acetylcholinesterase (Electrophorus electricus), sequence (O42275 24-633 limits assumed): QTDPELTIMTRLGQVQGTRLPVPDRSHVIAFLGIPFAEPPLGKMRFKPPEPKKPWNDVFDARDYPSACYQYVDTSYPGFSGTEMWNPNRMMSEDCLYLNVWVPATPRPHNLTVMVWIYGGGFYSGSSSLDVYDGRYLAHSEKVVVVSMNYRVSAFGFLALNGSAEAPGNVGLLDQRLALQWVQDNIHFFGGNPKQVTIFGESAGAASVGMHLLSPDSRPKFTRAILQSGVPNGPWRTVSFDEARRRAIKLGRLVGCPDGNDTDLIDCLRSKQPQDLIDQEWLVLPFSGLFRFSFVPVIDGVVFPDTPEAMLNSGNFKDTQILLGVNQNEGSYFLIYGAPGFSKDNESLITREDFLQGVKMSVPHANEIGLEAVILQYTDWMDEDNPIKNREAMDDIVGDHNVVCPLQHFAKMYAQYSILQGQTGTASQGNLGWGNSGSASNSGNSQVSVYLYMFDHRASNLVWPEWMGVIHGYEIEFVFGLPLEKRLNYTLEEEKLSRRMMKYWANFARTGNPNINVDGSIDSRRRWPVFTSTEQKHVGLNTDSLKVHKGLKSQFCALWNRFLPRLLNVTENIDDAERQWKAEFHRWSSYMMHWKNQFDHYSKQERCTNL

Regarding `N#Cc1cccnc1N1CCN(c2nc(Nc3cccc(C(F)(F)F)c3)nc(Nc3ccc(F)c(Cl)c3)n2)CC1`, the Activity is on record as 95.4% in the data set on SH-SY5Y [1]; 84.3% with SH-SY5Y [3]; 88.6% in the data set on SH-SY5Y [5]; 92.8% in the data set on SH-SY5Y [7]; 97.1% with SH-SY5Y [8]; 80.3% in the data set with SH-SY5Y [10]. Further, the Activity with SH-SY5Y [12] was 95.7%. Further, the inhibition result (with SH-SY5Y [2]; with SH-SY5Y [4]; in the data set filed under Homo sapiens [16]; in the data set with SH-SY5Y [17]; in data set [19]) was “Active” each time. The pIC50 against Acetylcholinesterase was 7.23; against Cholinesterase, 5.44. In the data set listed under Homo sapiens [6], this compound registered an inhibition of 83.7%. For the same compound, the outcome in the data set on SH-SY5Y [9], in the data set with SH-SY5Y [11], in the data set on SH-SY5Y [13], with SH-SY5Y [14], in the data set with SH-SY5Y [15] and in the data set on SH-SY5Y [18] was Active.

For `N#Cc1cccnc1N1CCN(c2nc(Nc3cccc(C(F)(F)F)c3)nc(NC3CC3)n2)CC1`, the pIC50 against Acetylcholinesterase was 6.28; at Cholinesterase it was 5.28. The compound further returned an inhibition in the data set filed under Homo sapiens [6] of 60.7%.

In the case of `Cc1ccc(Nc2nc(Nc3cccc(C(F)(F)F)c3)nc(N3CCN(c4ncccc4C#N)CC3)n2)cc1`, the pIC50 was 6.82 against Acetylcholinesterase and 5.65 on Cholinesterase. Also, the inhibition in the data set filed under Homo sapiens [6] turned out to be 70.5%.

On to `COc1ccc(Nc2nc(Nc3cccc(C(F)(F)F)c3)nc(N3CCN(c4ncccc4C#N)CC3)n2)cc1`, for which the Activity in the data set on SH-SY5Y [1] was 96.4%; in the data set with SH-SY5Y [3], 86.3%; in the data set with SH-SY5Y [5] it was 89.6%; in the data set on SH-SY5Y [7] it was 93.8%; in the data set on SH-SY5Y [8] it was 98.1%; with SH-SY5Y [9], “Dose-dependent effect”. Also, the results for the Activity with SH-SY5Y [10] and in the data set with SH-SY5Y [12] were 83.3% and 94.7%, respectively. Moreover, the inhibition entry in the data set with SH-SY5Y [2], in the data set on SH-SY5Y [4], in the data set filed under Homo sapiens [16] and with SH-SY5Y [17] was “Active” in each case. Also, the pIC50 was 7.10 against Acetylcholinesterase and 5.70 at Cholinesterase. This compound also came in with an inhibition in the data set filed under Homo sapiens [6] of 82.4%. Moreover, the outcome in the data set with SH-SY5Y [11], in the data set on SH-SY5Y [13], in the data set with SH-SY5Y [14], with SH-SY5Y [15] and in the data set with SH-SY5Y [18] was Active.

`COc1cc(/C=C/C(=O)CC(=O)/C=C/c2ccc(O)c(OC)c2)ccc1O` yielded an inhibition in the data set listed under Homo sapiens [6] of 55.3%. The inhibition result in the data set listed under Homo sapiens [16] was “Active”.

`Cc1ccc(Nc2nc(Nc3ccc(F)c(Cl)c3)nc(N3CCN(c4ncccc4C#N)CC3)n2)cc1`: the pIC50 on Acetylcholinesterase is 5.77; on Cholinesterase it was 5.27. In the data set filed under Homo sapiens [6], this compound showed an inhibition of 63.5%.

On to `N#Cc1cccnc1N1CCN(c2nc(Nc3cccc(C(F)(F)F)c3)nc(Nc3ccc(F)cc3F)n2)CC1`, for which the figures for the pIC50 against Acetylcholinesterase and against Cholinesterase were 7.14 and 5.55, respectively. The compound further came in with an inhibition in the data set listed under Homo sapiens [6] of 81.2%.

Consider `N#Cc1cccnc1N1CCN(c2nc(Nc3ccc(F)cc3)nc(Nc3cccc(C(F)(F)F)c3)n2)CC1`, for which the pIC50 is 7.08 at Acetylcholinesterase and 5.31 at Cholinesterase. In addition, the inhibition in the data set listed under Homo sapiens [6] turned out to be 80.4%.

As to `COc1ccc(Nc2nc(Nc3ccccc3F)nc(N3CCN(c4ncccc4C#N)CC3)n2)cc1`, the pIC50 was 5.85 at Acetylcholinesterase and 5.38 at Cholinesterase. Besides, the inhibition in the data set filed under Homo sapiens [6] was 68.5%.
